According to patent publication US4618602A, “Amine containing pseudooligosaccharide, pharmaceutical composition and method of use” (Hoechst Aktiengesellschaft, priority 1984, dated 1986):

Legend:
experimental animals = test: Oral administration of high doses to experimental animals (tolerability); type: in vivo
[1] = tested on: α-Amylase from the pancreas of pigs; test: Amylase test (inhibition of α-amylase, amylase inhibitor units); type: biochemical; settings: 1 AIU inhibits two amylase units by 50%, pH 6.9, 37° C.
Protocol: One amylase inhibitor unit (AIU) is defined as the amount of inhibitor which is capable of inhibiting two amylase units (AU) to the extent of 50% under the test conditions. By international agreement, one amylase unit is the amount of enzyme which cleaves 1 μEq of glucosidic bonds in starch in one minute. The μ equivalents of glucosidic bonds cleaved are determined photometrically, with dinitrosalicylic acid, as μEq of reducing sugars. The data are calculated as μmol of maltose, determined with the aid of a maltose calibration line.
α-Amylase from the pancreas of pigs and the solutions to be tested are preincubated together in 1.0 ml of 20 mM phosphate buffer, pH 6.9, +10 mM NaCl at 37° C. for 10-20 minutes. The enzymatic reaction is started by addition of 1.0 ml of soluble starch (0.25% strength in the buffer described) according to Zulkowski. After exactly 10 minutes, the reaction istopped with 2.0 ml of dinitrosalicylic acid color reagent (from Boehringer Mannheim: Biochemica-Information II), and the mixture is heated in a boiling waterbath for 5 minutes for color development. After cooling, the extinction is measured against the reagent blank at 546 nm. The 50% inhibition is determined graphically by means of a probability plot in comparison with the non-inhibited enzyme reaction using various amounts of inhibitor.

Solubility in water = type: physicochemical
blood sugar = test: Blood sugar after oral starch load in fasting male Wistar rats; type: in vivo; settings: simultaneously with 2 g of starch per kg, fasting male Wistar rats 200-250 g
Source text: The α-glucosidase inhibitor according to the invention is particularly suitable for ora administration. It can be administered as the pure substance, as a physiologically acceptable salt with acids or in the form of a pharmaceutical formulation, using the customary auxiliaries and excipients. Combined use with other medicaments, such as hypoglycemic or lipid-lowering substances, may also be advantageous. Since high molecular weight saccharides are not, or not noticeably, absorbed as such from the digestive tract, no toxicologically unacceptable side effects are to be expected of the substance according to the invention. […] To test the pharmacological action of the AI-5662, fasting male Wistar rats weighing between 200 and 250 g were given an oral administration of the inhbitor AI-5662 according to the invention simultaneously with 2 g of starch per kg of body weight. […] Besides blood glucose regulation, the […] according to the invention can also be used for inhibiting salivary α-amylase. This enzyme effects digestion of starch in the mouth, and the sugar thus formed promotes caries of the teeth. The compound according to the invention can therefore be used to prevent or reduce the development of caries.

α-amylase-inhibiting action ([1]; freeze-dried white amorphous powder of Example 2): 4×10^4 AIU per mg | specific activity ([1]; purified product after silica gel chromatography): 4×10^4 α-amylase inhibitor units per mg | solubility in water (Solubility in water): readily soluble in water
Compound: C[C@H]1O[C@H](O[C@H]2[C@H](O)[C@@H](O)[C@@H](O[C@H]3[C@H](O)[C@@H](O)C(O)O[C@@H]3CO)O[C@@H]2CO)[C@H](O)[C@@H](O)[C@@H]1N[C@H]1C=C(CO)[C@@H](O[C@H]2O[C@H](CO)[C@@H](O[C@H]3O[C@H](C)[C@@H](N[C@H]4C=C(CO)[C@@H](O)[C@H](O)[C@H]4O)[C@H](O)[C@H]3O)[C@H](O)[C@H]2O)[C@H](O)[C@H]1O (some centres unmarked) [AI-5662]
signs following oral administration even of high doses (experimental animals): no notworthy signs were detected | efficacy on blood sugar concentrations (blood sugar): The efficacy of the product was demonstrated
